Source: patent US20100266589A1, “ADJUVANT CANCER THERAPY” (priority 2009, published 2010)

System: patients with resected stages II and III carcinoma of the colon
Assay: NSABP C-08 clinical trial: bevacizumab added to mFOLFOX6 as adjuvant therapy
Format: in vivo
From the text: This example concerns analysis of results obtained from colorectal cancer subjects treated in the National Surgical Adjuvant Breast and Bowel Project (NSABP C-08) clinical trial. The primary aim of the study was to determine the clinical benefit of adding bevacizumab to standard chemotherapy for treating colorectal cancer, as measured by disease-free survival (DFS). A secondary goal was to determine if there was clinical benefit in prolonging overall survival. The standard chemotherapy used in this trial was a combination of leucovorin, 5-fluorouracil and oxaliplatin. This trial evaluated the efficacy of bevacizumab (AVASTIN®) as adjuvant therapy for patients with resected stages II and III carcinoma of the colon.
In the NSABP C-08 trial, the following treatment protocol was used:
Arm A/Group 1: modified FOLFOX6 (mFOLFOX6: oxaliplatin (85 mg/m^2) with concurrent leucovorin (400 mg/m^2) and 5-FU (400 mg/m^2 IV bolus) on Day 1 and 5-FU (2400 mg/m^2) over 46 hours on Day 1 and Day 2) q 14 days for 12 cycles (6 months);
Arm B/Group 2: modified FOLFOX6 q 14 days for 12 cycles (6 months) plus bevacizumab administered before oxaliplatin on Day 1 of each chemotherapy cycle (5 mg/kg IV) q 14 days for 1 year.
The primary endpoint of this trial was duration of disease free survival (DFS). […]
2,710 patients were accrued to the study (1,356 to the contol arm and 1,354 to the experimental arm). 18 patients on the control arm and 20 patients on the experimental arm were not evaluated for efficacy due to no follow-up or positive surgical margins. […]
Time to an event was measured from randomization. All p-values, other than the primary endpoint, were evaluated as significant at the 0.05 level two-sided. […] Hazard ratios (HR) were calculated from Cox models and p-values from time to event were from the log rank test. […] Smooth estimates of the underlying hazard functions were calculated by the method of Muller and Wang (Biometrics 1994 50:61-76). Smooth estimates of the ratio of the underlying hazards were calculated by the method of Gilbert et al. (Biometrics 2002 58:773-80).

Substance: Bevacizumab: recombinant humanized anti-VEGF monoclonal antibody; human IgG1 framework with CDRs from murine antibody A.4.6.1
- HR (DFS, 1.25 years after initiation of treatment, vs mFOLFOX6 alone, 95% CI 0.48-0.78, p <0.0001): 0.61
- toxicities or adverse effects (in words) (added to chemotherapy vs chemotherapy alone): not associated with any increased toxicities or adverse effects
- effect on DFS (in words) (added to chemotherapy vs chemotherapy alone, during the first year (active treatment phase)): significantly increased DFS
